Data as given in ChEMBL document CHEMBL5226341, “Discovery of a Potent FLT3 Inhibitor (LT-850-166) with the Capacity of Overcoming a Variety of FLT3 Mutations” (J Med Chem, 2021).
Activity calls are given as the source filed them. The rule behind the calls is not given here.

Legend:
[1] = molecular target: Receptor-type tyrosine-protein kinase FLT3 (Homo sapiens) (UniProt P36888); test: Inhibition of FLT3 in human MV4-11 cells assessed as inhibition of FLT3 phosphorylation at Tyr589/591 residue at 10 nM incubated for 4 hrs by western blot analysis; format: cell-based
Chain of Receptor-type tyrosine-protein kinase FLT3 (Homo sapiens) (P36888 whole entry): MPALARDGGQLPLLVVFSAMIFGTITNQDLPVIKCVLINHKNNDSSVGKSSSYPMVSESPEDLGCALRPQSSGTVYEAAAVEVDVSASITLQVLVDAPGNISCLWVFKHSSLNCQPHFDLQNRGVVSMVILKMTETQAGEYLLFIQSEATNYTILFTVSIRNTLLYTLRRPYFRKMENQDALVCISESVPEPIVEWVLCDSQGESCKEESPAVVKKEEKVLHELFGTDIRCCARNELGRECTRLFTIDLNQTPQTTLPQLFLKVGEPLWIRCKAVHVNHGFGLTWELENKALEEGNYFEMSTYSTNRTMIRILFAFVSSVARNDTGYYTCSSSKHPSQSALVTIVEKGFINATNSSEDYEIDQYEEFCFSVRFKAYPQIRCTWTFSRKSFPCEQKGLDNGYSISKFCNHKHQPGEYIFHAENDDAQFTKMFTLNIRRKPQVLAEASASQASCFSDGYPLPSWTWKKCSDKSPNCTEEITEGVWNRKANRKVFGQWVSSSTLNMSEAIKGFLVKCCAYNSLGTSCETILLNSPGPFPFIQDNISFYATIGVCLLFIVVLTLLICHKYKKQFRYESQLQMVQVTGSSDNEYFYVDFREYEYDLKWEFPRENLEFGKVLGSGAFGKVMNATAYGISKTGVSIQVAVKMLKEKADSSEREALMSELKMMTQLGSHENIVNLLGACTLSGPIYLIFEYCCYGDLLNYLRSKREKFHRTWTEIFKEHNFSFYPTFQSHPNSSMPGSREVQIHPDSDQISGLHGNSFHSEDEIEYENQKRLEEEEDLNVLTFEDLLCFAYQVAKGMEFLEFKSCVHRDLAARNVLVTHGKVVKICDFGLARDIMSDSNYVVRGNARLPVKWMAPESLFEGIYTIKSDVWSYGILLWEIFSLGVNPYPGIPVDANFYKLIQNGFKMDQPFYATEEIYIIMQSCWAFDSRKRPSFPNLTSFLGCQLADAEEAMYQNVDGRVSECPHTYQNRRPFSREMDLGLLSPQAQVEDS

HCD-57 [2] = test: Induction of cell cycle arrest in mouse HCD-57 cells harboring FLT3-D835Y mutant at 100 nM incubated for 24 hrs by PI staining based flow cytometry; format: functional
HCD-57 [3] = test: Induction of apoptosis in mouse HCD-57 cells harboring FLT3-D835Y mutant at 100 nM incubated for 24 hrs by AnnexinV-FITC/PI staining based flow cytometry; format: functional, cell-based
BaF3 = test: Antiproliferative activity against mouse BaF3 cells harboring FLT3-ITD-Y842H mutant assessed as reduction in cell viability measured after 72 hrs by CellTiterGlo luminescent assay; format: functional, cell-based; details: BaF3, 72 h
[4] = AUC (0 to t) in Sprague-Dawley rat at 10 mg/kg, po measured for 24 hrs by LC-MS/MS analysis; format: ADME, organism-based; parameters: time 24 hrs, dose 10 mg/kg, route po; details: in vivo
[5] = Initial drug concentration in Sprague-Dawley at 1 mg/kg, iv by LC-MS/MS analysis; format: ADME, organism-based; details: rat, in vivo
[6] = tested on: Receptor-type tyrosine-protein kinase FLT3 (Homo sapiens), P36888 [UNDEFINED MUTATION]; format: cell-based; details: BaF3, dose 0.1-100 nM, time 4.0 hrs
Chain of Receptor-type tyrosine-protein kinase FLT3 (Homo sapiens), P36888 [UNDEFINED MUTATION] (P36888 whole entry, looked up, change not shown): as the sequence (P36888 whole entry) above

MV4-11 [7] = test: Induction of apoptosis in human MV4-11 cells assessed as necrotic cells at 100 nM incubated for 24 hrs by AnnexinV-FITC/PI staining based flow cytometry (reference value: 0.45%); format: functional
[8] = Toxicity in BALB/c mouse xenografted with human MV4-11 cells assessed as morphological changes in spleen at 15 mg/kg, iv for 21 days by H and E staining based analysis; format: organism-based; details: in vivo, 504 h, time 21 day
MV4-11 [9] = test: Antitumor activity against human MV4-11 cells xenografted in BALB/c mouse assessed as tumor growth inhibition at 15 mg/kg, iv BID for 21 days by vernier caliper analysis; format: functional; details: MV4-11, 504 h, time 21 day, read-out: TGI
[10] = Toxicity in BALB/c mouse xenografted with human MV4-11 cells assessed as morphological changes in kidney at 15 mg/kg, iv for 21 days by H and E staining based analysis; format: organism-based; details: in vivo, 504 h, time 21 day
[11] = Volume of distribution at steady state in Sprague-Dawley rat at 1 mg/kg, iv measured for 24 hrs by LC-MS/MS analysis; format: ADME, organism-based; details: in vivo, read-out: Vdss
HCT-116 = test: Antiproliferative activity against human HCT-116 cells assessed as reduction in cell viability measured after 72 hrs by CellTiterGlo luminescent assay; format: functional, cell-based; details: HCT-116, 72 h
MV4-11 [12] = test: Induction of apoptosis in human MV4-11 cells assessed as late apoptotic cells at 10 nM incubated for 24 hrs by AnnexinV-FITC/PI staining based flow cytometry (reference value: 4.2%); format: functional
MV4-11 [13] = test: Induction of apoptosis in human MV4-11 cells assessed as early apoptotic cells at 50 nM incubated for 24 hrs by AnnexinV-FITC/PI staining based flow cytometry (reference value: 3.09%); format: functional
MV4-11 [14] = test: Induction of apoptosis in human MV4-11 cells assessed as late apoptotic cells at 50 nM incubated for 24 hrs by AnnexinV-FITC/PI staining based flow cytometry (reference value: 4.2%); format: functional

## CCN1CCN(c2ccc(C(=O)Nc3cc(-c4ccc5ncn(Cc6c(Cl)cccc6Cl)c5c4)[nH]n3)cc2)CC1
[1]
  inhibition: 100%
HCD-57 [2]
  Activity: Active
HCD-57 [3]
  Activity: Active
BaF3
  IC50: < 0.0015 µM
[4]
  AUC(0-t) at 24 h: 50.9 ng·h/mL
[5]
  C0: 368 ng/mL
[6]
  inhibition: Dose-Dependent Effect
MV4-11 [7]
  Activity: 0.61%
[8]
  Activity: Non-Toxic
MV4-11 [9]
  inhibition in vivo at 15 mg/kg: 108%
[10]
  Activity: Non-Toxic
[11]
  Vd: 6.27 L/kg
HCT-116
  IC50: > 10 µM
MV4-11 [12]
  Activity: 20.5%
MV4-11 [13]
  Activity: 11.3%
MV4-11 [14]
  Activity: 26.3%
